Data: US8916681B2, “Compound, use and method” (Medical Research Council, priority 2007, dated 2014)
“Also recorded” adds a separate entry of the source. Non-standard residues stand in square brackets, D forms with d. Residues, ends and D or L forms follow the SMILES beside them.

How the values were obtained:
GnRH neurons = test: GnRH neuron firing, targeted extracellular recordings in brain slices; assay type: cell-based, mouse; conditions: for response of GnRH neuron firing to 1 nM kisspeptin-10 after pretreatment with peptide: 1, 10, 100 nM peptide
Experimental: Firing of GnRH neurons were recorded in brain slices from transgenic female mice in which GFP is genetically targeted to GnRH neurons (42). Mice were housed on a 14 h light, 10 h dark cycle, with lights off at 1630 h, and were maintained on Harlan 2916 rodent chow (Harlan) and water ad libitum. All procedures were approved by the Animal Care and Use Committee of University of Virginia and were conducted within the guidelines of the National Research Council's Guide for the Care and Use of Laboratory Animals. Adult female GnRH-GFP mice were ovariectomized under isoflurane (Abbott Laboratories) anesthesia. Postoperative analgesia was provided by a long-acting local anesthetic (0.25% bupivicaine; 7.5 μl/site; Abbott Laboratories). At the time of surgery, mice received Silastic (Dow Corning) capsules containing 0.625 μg estradiol in sesame oil. […] No more than four cells from a single animal were recorded, all in different slices.
Brain slices were prepared using previously described method (44). Briefly, all solutions were bubbled with a 95% O2/5% CO2 mixture throughout the experiments and for at least 15 min before exposure to the tissue. The brain was rapidly removed and placed in ice-cold, high-sucrose saline solution containing 250 mM sucrose, 3.5 mM KCl, 26 mM NaHCO3, 10 mM glucose, 1.25 mM Na2HPO4, 1.2 mM MgSO4, and 2.5 mM MgCl2. Coronal 300-μm brain slices were cut with a Vibratome 3000 (Technical Products, International, Inc., St. Louis, Mo.). Slices were incubated for 30 min at 30-32 C in a solution of 50% high-sucrose saline and 50% normal saline (NS) containing 135 mM NaCl, 3.5 mM KCl, 10 mM glucose, 1.3 mM Na2HPO4, 1.2 mM MgSO4, and 2.5 mM CaCl2 and then were transferred to a solution of 100% NS at room temperature and kept at least 30 min and no more than 6 h before recording.
Targeted extracellular recordings (also known as loose-patch) were used to study effects of kisspeptin-10 and peptide 234 on GnRH neuron firing activity (45). […] Although these events are not action potentials per se, they accurately reflect changes in the action potential firing rate. For simplicity, we have used the phrases firing rate, firing pattern, and/or firing activity to refer to these events.
Individual brain slices were placed in a recording chamber continuously superfused with oxygenated NS solution and kept at 29-31 C. Cells were visualized with an Olympus BX50WI upright fluorescent microscope with infrared differential interference contrast (Opelco). GnRH neurons were identified by brief illumination at 470 nm to visualize the GFP signal. Patch borosilicate pipettes (World Precision Instruments), which ranged from 1.5-3 ΩM were filled with normal HEPES-buffered solution containing 150 mM NaCl, 10 mM HEPES, 10 mM glucose, 2.5 mM CaCl2, 1.3 mM MgCl2, and 3.5 mM KCl. Pipettes were placed in contact with the GnRH neurons using an MP-285 micromanipulator (Sutter Instruments). Seal resistances ranged from 8 MΩ and either remained stable or increased during recording up to as high as 50 MΩ. Current traces were obtained using an EPC-8 amplifier (HEKA) with the PulseControl XOP (Instrutech) running in Igor Pro (Wavemetrics) on the G4 Macintosh computer (Apple Computer) to acquire data. A voltage-clamp mode with a pipette holding potential of 0 mV, filtering at 10 kHz, digitized with an ITC-18 acquisition interface (Instrutech) was used for the recordings.
Different doses (1 nM, 10 nM, 100 nM) of peptide 234 were used to examine its antagonistic action on kisspeptin-10 activation of gpr-54. Positive control cells were recorded for a 10-min stable baseline, and then treated with kisspeptin-10 for 5 min, followed by a 15-min washout. Experimental cells were recorded for a 5-min stable baseline in NS, followed by 10 min in peptide 234 (1, 10 or 100 nM), then 5 min in kisspeptin-10 plus the same dose of antagonist, followed by a wash in NS. […]

[1] = test system: serum LH and testosterone; test: Kisspeptin-10 stimulated LH and testosterone in intact male rats, icv injections; assay type: in vivo, rat; conditions: for LH secretory response to kisspeptin-10 (AUC): 1 nmol icv with 100 pmol kisspeptin-10, 120-min period after co-injection; for testosterone levels vs kisspeptin-10 alone: 60 min after combined injection with kisspeptin-10
Experimental: Adult male rats (BW: 280-310 g) bred in the vivarium of the University of Córdoba were used. The animals were maintained under constant conditions of light (14 h of light, from 0700 h) and temperature (22 C), and, before cannula implantation, were kept in groups of four rats per cage with free access to pelleted food and tap water. Experimental procedures were approved by the Córdoba University Ethical Committee for animal experimentation and were conducted in accordance with the European Union normative for care and use of experimental animals.
The animals were implanted with icy cannulae under light ether anaesthesia and caged individually thereafter. To allow delivery of compounds into the lateral cerebral ventricle, the cannulae were lowered to a depth of 4 mm beneath the surface of the skull; the insert point was 1 mm posterior and 1.2 mm lateral to bregma. Functional tests were conducted at least 24-48 h after cannula implantation.
Pharmacological tests in intact males involved 5 μl injections at 60 min intervals (icy) of 1 nmol doses of the peptide 234. The last injection was accompanied by the injection of an effective (but sub-maximal) dose of 100 pmol kisspeptin-10 (Phoenix Pharmaceuticals Ltd). Animals injected with vehicle (physiological saline) served as controls. Blood samples (250 μL) were taken by jugular venipuncture at 15- and 60-min following each icy injection. In addition, blood samples were taken immediately before initiation of the experiment (time: 0-min) and at 120-min after last injection (time: 240-min). Experimental procedures and kisspeptin doses were selected on the basis of previous studies (16, 34, 48). For each time-point, 10-12 samples were taken per group.
Serum LH levels were measured in a volume of 50 μl using a double-antibody method and radioimmunoassay kits supplied by the NIH (Dr. AF Parlow, NIDDK). Rat LH-I-10 was labeled with ^125I using Iodo-Gen precoated tubes, following the instructions of the manufacturer (Pierce), and hormone concentrations were expressed using reference preparation LH-RP-3 as standard. Intra- and inter-assay coefficients of variation were below 8 and 10%, respectively. The sensitivity of the assay was 5 pg/tube. In addition, serum testosterone (T) measurements were selectively conducted in blood samples taken 60-min after co-administration of kp-10 and peptide 234 (Time: 180-min). To this end, a commercial kit from MP Biomedicals was used, following the instructions of the manufacturer. The sensitivity of the assay was 0.1 ng/tube and the intra-assay coefficient of variation was 4.5%. For each hormone, all samples were measured in the same assay. Accuracy of hormone determinations was confirmed by assessment of rat serum samples of known hormone concentrations used as external controls.
Hormonal determinations were conducted in duplicate, with a minimal total number of 10 samples per group. When appropriate, in addition to individual time-point measurements, integrated LH secretory responses were calculated as the area under the curve (AUC), following the trapezoidal rule. Hormonal data are presented as mean±SEM. Results were analyzed for statistically significant differences using Student t-test or ANOVA followed by Student-Newman-Keuls multiple range test (SigmaStat 2.0). P≦0.05 was considered significant.

| SMILES | GnRH neuron firing activity (GnRH neurons; 1 nM agonist, listed as kisspeptin-10) | serum LH levels ([1]; central injection to vehicle-treated animals at 120 min) | GnRH neuron firing activity, peptide alone (GnRH neurons; 1 nM, post) | GnRH neuron firing activity, peptide alone (GnRH neurons; 1 nM, pre) | GnRH neuron firing activity, peptide alone (GnRH neurons; 10 nM, post) | GnRH neuron firing activity, peptide alone (GnRH neurons; 10 nM, pre) | GnRH neuron firing activity, peptide alone (GnRH neurons; 100 nM, post) | GnRH neuron firing activity, peptide alone (GnRH neurons; 100 nM, pre) | effect of peptide alone on GnRH neuron firing activity (GnRH neurons; 1, 10, 100 nM) | response of GnRH neuron firing to 1 nM kisspeptin-10 after pretreatment with peptide (GnRH neurons) | response of GnRH neuron firing to 1 nM kisspeptin-10 after pretreatment with peptide (GnRH neurons; listed as peptide 234) | LH secretory response to kisspeptin-10 (AUC) [1] | LH secretory response to kisspeptin-10 (AUC) ([1]; listed as peptide 234) | basal LH levels ([1]; 1 nmol icv, 15, 60, 75 and 120 min after injection) | testosterone levels vs kisspeptin-10 alone [1] | testosterone levels vs kisspeptin-10 alone ([1]; listed as peptide 234) |
| --- | --- | --- | --- | --- | --- | --- | --- | --- | --- | --- | --- | --- | --- | --- | --- | --- |
| CC(C)C[C@H](NC(=O)CNC(=O)[C@H](Cc1ccccc1)NC(=O)[C@H](CO)NC(=O)[C@H](CC(N)=O)NC(=O)[C@H](Cc1c[nH]c2ccccc12)NC(=O)[C@H](CC(N)=O)NC(=O)[C@@H](N)Cc1ccc(O)cc1)C(=O)N[C@@H](CCCNC(=N)N)C(=O)N[C@@H](Cc1ccccc1)C(N)=O [Kiss, reference compound] | significantly increased; also recorded: markedly increased | evoked the expected rise | – | – | – | – | – | – | – | – | – | – | – | – | – | – |
| CC(=O)N[C@H](C)C(=O)N[C@@H](CC(N)=O)C(=O)N[C@@H](Cc1c[nH]c2ccccc12)C(=O)N[C@@H](CC(N)=O)C(=O)NCC(=O)N[C@@H](Cc1ccccc1)C(=O)NCC(=O)N[C@H](Cc1c[nH]c2ccccc12)C(=O)N[C@@H](CCCNC(=N)N)C(=O)N[C@@H](Cc1ccccc1)C(N)=O [Peptide 234] (Ac-[dA]NWNGFG[dW]RF-NH2) | – | – | 0.27±0.08 Hz | 0.18±0.12 Hz | 0.29±0.17 Hz | 0.34±0.15 Hz | 0.62±0.14 Hz | 0.45±0.12 Hz | no effect | block | significantly reduced; also recorded: blocked | inhibits; also recorded: blocked | significantly blunted | did not significantly modify | blocked | lower |
